Data as given in US20260055079A1, “PHTHALAZINONE COMPOUNDS AS PARP7 INHIBITORS” (AZKARRA THERAPEUTICS, INC., priority 2022, published 2026).
Read-outs that look alike come from different tables or passages of the source.

What was measured:
[1] = target: His-GST-PARP7 (Homo sapiens (Human), UniProt Q7Z3E1); assay: PARP7 biochemical assay; settings: read-out: PARP7 IC50
[2] = test system: NCI-H1373 (human lung adenocarcinoma) cells; assay: Cell proliferation assay (CellTiter-Glo), NCI-H1373; type: cell-based; settings: read-out: NCI-H1373 GI50
[3] = test system: HARA (human lung squamous cell carcinoma) cells; assay: Cell proliferation assay (CellTiter-Glo), HARA; type: cell-based; settings: 6 days, CellTiter-Glo, read-out: HARA GI50
[4] = Homo sapiens, NCI-H1373, 144 h, 6 days, CellTiter-Glo

Sequence of His-GST-PARP7 (Q7Z3E1 whole entry): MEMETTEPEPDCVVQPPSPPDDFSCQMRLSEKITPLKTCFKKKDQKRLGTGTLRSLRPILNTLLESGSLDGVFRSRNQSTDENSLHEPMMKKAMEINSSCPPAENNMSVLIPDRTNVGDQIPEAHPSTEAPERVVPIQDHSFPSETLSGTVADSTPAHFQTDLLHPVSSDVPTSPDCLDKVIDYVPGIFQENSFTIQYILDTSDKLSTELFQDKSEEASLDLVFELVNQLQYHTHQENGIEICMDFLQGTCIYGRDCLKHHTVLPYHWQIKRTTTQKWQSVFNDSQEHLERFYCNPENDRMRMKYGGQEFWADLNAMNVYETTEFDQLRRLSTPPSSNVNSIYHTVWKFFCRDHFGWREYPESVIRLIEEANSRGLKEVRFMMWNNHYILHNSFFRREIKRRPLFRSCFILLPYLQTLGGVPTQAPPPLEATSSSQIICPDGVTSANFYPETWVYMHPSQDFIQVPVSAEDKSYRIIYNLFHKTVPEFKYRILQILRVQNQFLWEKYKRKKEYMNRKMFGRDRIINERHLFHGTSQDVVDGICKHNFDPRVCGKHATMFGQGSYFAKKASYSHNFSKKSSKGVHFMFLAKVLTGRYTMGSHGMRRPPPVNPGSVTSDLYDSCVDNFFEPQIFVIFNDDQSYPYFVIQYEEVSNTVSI

Molecule | IC50 [1] [µM] | GI50 [2, 4] [µM] | GI50 ([3]; Homo sapiens, 144 h) [µM] | GI50 ([2]; 6 days, CellTiter-Glo) [µM] | GI50 [3] [µM] | GI50 ([2]; Homo sapiens, NCI-H1373, 144 h) [µM]
COc1nc(N2CCN(C(=O)c3cc(Cc4n[nH]c(=O)c5ccc(OC6CCC6)cc45)ccc3F)CC2)ccc1C#N [Example 136, 6-(4-(5-((7-cyclobutoxy-4-oxo-3,4-dihydrophthalazin-1-yl)methyl)-2-fluorobenzoyl)piperazin-1-yl)-2-methoxynicotinonitrile] | 0.05 to 0.1 | 0.1 to 1 | > 5 | – | – | –
O=C(c1cc(Cc2n[nH]c(=O)c3ccc(OC4CCC4)cc23)ccc1F)N1CCCN(c2ncc(C(F)(F)F)cn2)CC1 [Example 98, 6-Cyclobutoxy-4-(4-fluoro-3-(4-(5-(trifluoromethyl)pyrimidin-2-yl)-1,4-diazepane-1-carbonyl)benzyl)phthalazin-1(2H)-one] | < 0.05 | 0.1 to 1 | > 5 | – | – | –
O=C(c1cc(Cc2n[nH]c(=O)c3ccc(OC4CCC4)cc23)ccc1F)N1CCN(c2ncc(C3CC3)cn2)CC1 [Example 162, 6-cyclobutoxy-4-(3-(4-(5-cyclopropylpyrimidin-2-yl)piperazine-1-carbonyl)-4-fluorobenzyl)phthalazin-1(2H)-one] | < 0.05 | < 0.1 | 0.1 to 1 | – | – | –
O=C(c1cc(Cc2n[nH]c(=O)c3ccc(OC4CCC4)cc23)ccc1F)N1CCN(c2ncc(C(F)(F)F)cn2)CC(F)(F)C1 [Example 126, 6-Cyclobutoxy-4-(3-(6,6-difluoro-4-(5-(trifluoromethyl)pyrimidin-2-yl)-1,4-diazepane-1-carbonyl)-4-fluorobenzyl)phthalazin-1(2H)-one] | < 0.05 | 0.1 to 1 | > 5 | – | – | –
N#Cc1ccc(N2CCN(c3noc4c(Cc5n[nH]c(=O)c6ccc(OC7CCC7)cc56)cccc34)CC2)nc1 [Example 208, 6-(4-(7-((7-Cyclobutoxy-4-oxo-3,4-dihydrophthalazin-1-yl)methyl)benzo[d]isoxazol-3-yl)piperazin-1-yl)nicotinonitrile] | 0.1 to 0.5 | 1 to 5 | 1 to 5 | – | – | –
N#Cc1ccc(N2CCN(C(=O)c3cc(Cc4n[nH]c(=O)c5cccnc45)ccc3F)CC2)nc1 [Example 92, 6-(4-(2-Fluoro-5-((5-oxo-5,6-dihydropyrido[2,3-d]pyridazin-8-yl)methyl)benzoyl)piperazin-1-yl)nicotinonitrile] | 0.05 to 0.1 | > 5 | > 5 | – | – | –
CC#Cc1ccc2c(=O)[nH]nc(Cc3ccc(F)c(C(=O)N4CCN(C(=O)CC#N)CC4)c3)c2c1 [Example 58, 3-(4-(2-Fluoro-5-((4-oxo-7-(prop-1-ynyl)-3,4-dihydrophthalazin-1-yl)methyl)benzoyl)piperazin-1-yl)-3-oxopropanenitrile] | < 0.05 | > 5 | – | – | – | –
CC#Cc1ccc2c(=O)[nH]nc(Cc3ccc(F)c(C(=O)N4CC(N(C)c5ccc(C#N)cn5)C4)c3)c2c1 [Example 70, 6-((1-(2-Fluoro-5-((4-oxo-7-(prop-1-yn-1-yl)-3,4-dihydrophthalazin-1-yl)methyl)benzoyl)azetidin-3-yl)(methyl)amino)nicotinonitrile 2,2,2-trifluoroacetate] | > 2 | > 5 | – | – | – | –
6-(4-(5-((7-Cyclobutoxy-4-oxo-3,4-dihydrophthalazin-1-yl)methyl)-2-fluorobenzoyl)-6,6-difluoro-1,4-diazepan-1-yl)nicotinonitrile [Example 125] | < 0.05 | – | – | 0.1 to 1 | > 5 | –
C#CCNc1ccc2c(=O)[nH]nc(Cc3ccc(F)c(C(=O)N4CCn5c(nnc5C(F)(F)F)C4)c3)c2c1 [Example 185, 4-(4-Fluoro-3-(3-(trifluoromethyl)-5,6,7,8-tetrahydro-[1,2,4]triazolo[4,3-a]pyrazine-7-carbonyl)benzyl)-6-(prop-2-yn-1-ylamino)phthalazin-1(2H)-one] | 0.1 to 0.5 | > 5 | – | – | – | –
CC#Cc1ccc2c(=O)[nH]nc(Cc3ccc(F)c(C(=O)N4CCN(c5ccc(C#N)cn5)CC(F)(F)C4)c3)c2c1 [Example 80, 6-(6,6-Difluoro-4-(2-fluoro-5-((4-oxo-7-(prop-1-ynyl)-3,4-dihydrophthalazin-1-yl)methyl)benzoyl)-1,4-diazepan-1-yl)nicotinonitrile] | < 0.05 | 0.1 to 1 | 1 to 5 | – | – | –
CC#Cc1ccc2c(=O)[nH]nc(Cc3ccc(F)c(C(=O)N4CC(N(C)c5cc(C#N)ccn5)C4)c3)c2c1 [Example 69] | > 2 | > 5 | – | – | – | –
CC#Cc1ccc2c(=O)[nH]nc(Cc3ccc(F)c(C(=O)NCc4nnc(C(F)(F)F)o4)c3)c2c1 [Example 199, 2-Fluoro-5-((4-oxo-7-(prop-1-ynyl)-3,4-dihydrophthalazin-1-yl)methyl)-N-((5-(trifluoromethyl)-1,3,4-oxadiazol-2-yl)methyl)benzamide] | > 2 | 1 to 5 | – | – | – | –
CC#Cc1ccc2c(=O)[nH]nc(Cc3ccc(F)c(C(=O)N4CCN(c5cc(C(=O)NC)ccn5)CC4)c3)c2c1 [Example 56, 2-(4-(2-Fluoro-5-((4-oxo-7-(prop-1-ynyl)-3,4-dihydrophthalazin-1-yl)methyl)benzoyl)piperazin-1-yl)-N-methylisonicotinamide] | < 0.05 | 0.1 to 1 | > 5 | – | – | –
C#CCNc1ccc2c(=O)[nH]nc(Cc3ccc(F)c(C(=O)N4CCN(c5ccc(C#N)cn5)CC4)c3)c2c1 [Example 15, 6-(4-(2-Fluoro-5-((4-oxo-7-(prop-2-ynylamino)-3,4-dihydrophthalazin-1-yl)methyl)benzoyl)piperazin-1-yl)nicotinonitrile] | < 0.05 | 1 to 5 | – | – | – | –
CC#Cc1ccc2c(=O)[nH]nc(Cc3ccc(F)c(C(=O)N4CCn5c(nnc5C5CC5)C4)c3)c2c1 [Example 63, 4-[[3-(3-cyclopropyl-6,8-dihydro-5H-[1,2,4]triazolo[4,3-a]pyrazine-7-carbonyl)-4-fluoro-phenyl]methyl]-6-prop-1-ynyl-2H-phthalazin-1-one] | < 0.05 | > 5 | – | – | – | –
O=C(c1cc(Cc2n[nH]c(=O)c3ccc(OC4CCC4)cc23)ccc1F)N1CCn2c(nnc2C(F)(F)F)C1 [Example 145, 6-cyclobutoxy-4-(4-fluoro-3-(3-(trifluoromethyl)-5,6,7,8-tetrahydro-[1,2,4]triazolo[4,3-a]pyrazine-7-carbonyl)benzyl)phthalazin-1(2H)-one] | < 0.05 | 1 to 5 | – | – | – | –
N#Cc1cnc(N2CCN(C(=O)c3cc(Cc4n[nH]c(=O)c5ccc(OC6CCC6)cc45)ccc3F)CC2)cc1C(F)(F)F [Example 132, 6-(4-(5-((7-cyclobutoxy-4-oxo-3,4-dihydrophthalazin-1-yl)methyl)-2-fluorobenzoyl)piperazin-1-yl)-4-(trifluoromethyl)nicotinonitrile] | – | < 0.1 | 1 to 5 | – | – | –
C#CCN(C)c1ccc2c(=O)[nH]nc(Cc3ccc(F)c(C(=O)N4CCN(c5ccc(C#N)cn5)CC4)c3)c2c1 [Example 17, 6-(4-(2-Fluoro-5-((7-(methyl(prop-2-ynyl)amino)-4-oxo-3,4-dihydrophthalazin-1-yl)methyl)benzoyl)piperazin-1-yl)nicotinonitrile] | < 0.05 | 1 to 5 | – | – | – | –
N#Cc1ccc(N2CCN(C(=O)c3cccc(Cc4n[nH]c(=O)c5c(F)cccc45)c3)CC2)nc1 [Example 88, 6-(4-(3-((5-Fluoro-4-oxo-3,4-dihydrophthalazin-1-yl)methyl)benzoyl)piperazin-1-yl)nicotinonitrile] | < 0.05 | 0.1 to 1 | – | – | – | –
CC#Cc1cc2c(Cc3ccc(F)c(C(=O)N4CCN(c5ccc(C#N)cn5)CC4)c3)n[nH]c(=O)c2cc1C [Example 83, 6-(4-(2-Fluoro-5-((6-methyl-4-oxo-7-(prop-1-yn-1-yl)-3,4-dihydrophthalazin-1-yl)methyl)benzoyl)piperazin-1-yl)nicotinonitrile] | < 0.05 | 0.1 to 1 | – | – | – | –
O=C(c1cc(Cc2n[nH]c(=O)c3ccc(OC4CCC4)cc23)ccc1F)N1CCN(c2ccc(O)cn2)CC1 [Example 140, 6-cyclobutoxy-4-(4-fluoro-3-(4-(5-hydroxypyridin-2-yl)piperazine-1-carbonyl)benzyl)phthalazin-1(2H)-one] | < 0.05 | 1 to 5 | – | – | – | –
N#Cc1ccc(N2CCN(C(=O)c3cc(Cc4n[nH]c(=O)c5ccc(NCCC(F)(F)F)cc45)ccc3F)CC2)nc1 [Example 33, 6-(4-(2-Fluoro-5-((4-oxo-7-((3,3,3-trifluoropropyl)amino)-3,4-dihydrophthalazin-1-yl)methyl)benzoyl)piperazin-1-yl)nicotinonitrile] | < 0.05 | 1 to 5 | – | – | – | –
N#Cc1ccc(N2CCN(C(=O)c3cc(Cc4n[nH]c(=O)c5ccc(NC6CCC6)cc45)ccc3F)CC2)nc1 [Example 29, 6-(4-(5-((7-(Cyclobutylamino)-4-oxo-3,4-dihydrophthalazin-1-yl)methyl)-2-fluorobenzoyl)piperazin-1-yl)nicotinonitrile] | < 0.05 | 0.1 to 1 | – | – | – | –
COC1CN(c2ccc3c(=O)[nH]nc(Cc4ccc(F)c(C(=O)N5CCN(c6ccc(C#N)cn6)CC5)c4)c3c2)C1 [Example 11, 6-(4-(2-Fluoro-5-((7-(3-methoxyazetidin-1-yl)-4-oxo-3,4-dihydrophthalazin-1-yl)methyl)benzoyl)piperazin-1-yl)nicotinonitrile] | < 0.05 | – | – | – | – | 0.1 to 1
COc1ccc2c(=O)[nH]nc(Cc3ccc(S(C)(=O)=O)c(C(=O)N4CCN(c5ccc(C#N)cn5)CC4)c3)c2c1 [Example 182, 6-(4-(5-((7-Methoxy-4-oxo-3,4-dihydrophthalazin-1-yl)methyl)-2-(methylsulfonyl)benzoyl)piperazin-1-yl)nicotinonitrile] | < 0.05 | > 5 | – | – | – | –
N#Cc1ccc(N2CCN(C(=O)c3cc(Cc4n[nH]c(=O)c5ccc(NCC(F)(F)F)cc45)ccc3F)CC2)nc1 [Example 22, 6-(4-(2-Fluoro-5-((4-oxo-7-((2,2,2-trifluoroethyl)amino)-3,4-dihydrophthalazin-1-yl)methyl)benzoyl)piperazin-1-yl)nicotinonitrile] | < 0.05 | 1 to 5 | – | – | – | –
